Laboratory results as given in article PMC4104029, “Mechanism of Action of Compound-13: An α1-Selective Small Molecule Activator of AMPK” (Chemistry & Biology, 2014).

Experiments:
[1] = test system: LKB1−/− mouse embryonic fibroblasts; assay: AMPK and ACC phosphorylation in LKB1-null fibroblasts; format: cell-based; conditions: 1 hr; AICAR 2 mM
Procedure: AICAR (0.5 mM) was included as a positive control. Cell lysates were analyzed using western blotting with the indicated antibodies. (B) AMPKα1 or AMPKα2 complexes were immunoprecipitated from hepatocyte extracts prepared as described in (A) and assayed for kinase activity using 0.2 mM AMARA and 0.1 mM ATP. Results are expressed as the mean Pi incorporated in picomoles per minute-milligram ± SD. (C) Hepatocytes were stimulated with 30 μM C13 for the indicated times prior to harvesting, with AICAR (0.5 mM, 1 hr) as positive control. Lysates were analyzed using western blotting with the indicated antibodies. (D) Mouse hepatocytes were treated with the indicated compounds for 1 hr, and adenine nucleotide ratios were determined using capillary electrophoresis of perchloric acid extracts. […] Lysates were analyzed using western blotting with the indicated antibodies. (F) Wild-type (LKB1^+/+) or LKB1-null (LKB1^−/−) mouse embryonic fibroblasts were incubated with the indicated concentrations of C13 for 1 hr. AICAR (2 mM) was included as a positive control. Lysates were analyzed using western blotting with the indicated antibodies.

[2] = biological target: T1, AMPKα1 complexes in primary hepatocytes (Mus musculus, UniProt O54950+Q5EG47); assay: Isoform-specific immunoprecipitate kinase assay from hepatocytes; format: cell-based; conditions: 1 hr; washed immunoprecipitates
T1 construct: AMPKα1 or AMPKα2 complexes were immunoprecipitated from hepatocyte extracts; endogenous in cells; host or cells: primary mouse hepatocytes
Procedure: (§1) Figure 4 The C2 Prodrug, C13, Potently Activates AMPK in Mouse Primary Hepatocytes (A) Isolated mouse hepatocytes were incubated with vehicle or the indicated concentrations of C13 for 1 hr. AICAR (0.5 mM) was included as a positive control. Cell lysates were analyzed using western blotting with the indicated antibodies. (B) AMPKα1 or AMPKα2 complexes were immunoprecipitated from hepatocyte extracts prepared as described in (A) and assayed for kinase activity using 0.2 mM AMARA and 0.1 mM ATP. Results are expressed as the mean Pi incorporated in picomoles per minute-milligram ± SD. […] Lysates were analyzed using western blotting with the indicated antibodies. (D) Mouse hepatocytes were treated with the indicated compounds for 1 hr, and adenine nucleotide ratios were determined using capillary electrophoresis of perchloric acid extracts. […] Lysates were analyzed using western blotting with the indicated antibodies. […] Lysates were analyzed using western blotting with the indicated antibodies. […]
(§2) AMPK phosphotransferase activity was assayed in reactions (50 μl) containing 50 mM HEPES, pH 7.4, 10 mM MgCl2, 0.1 mM EGTA, 1 mM DTT, 0.01% BRIJ-35, 100 μM [γ-^32P]ATP (∼250 CPM⋅pmol^−1) and 200 μM AMARA (AMARAASAAALARRR). […] Washed filters were dried and [^32P] incorporation determined by Cherenkov counting. […]

[3] = biological target: T2, AMPKα2 complexes in primary hepatocytes (Mus musculus, UniProt O54950+Q8BRK8); assay: as above; format: cell-based; conditions: 1 hr; washed immunoprecipitates
T2 construct: AMPKα1 or AMPKα2 complexes were immunoprecipitated from hepatocyte extracts; endogenous in cells; host or cells: primary mouse hepatocytes
Procedure: as §1, §2

α1-KO hepatocytes = assay: Lipid synthesis, [1-14C]acetate incorporation; format: cell-based, mouse; conditions: 1 μM
Procedure: Figure 6 C13 Is Relatively Selective for α1 Complexes in Primary Hepatocytes (A) Hepatocytes from WT, AMPKα1^−/−, and AMPKα2^−/− mice were treated with the indicated concentrations of C13 and labeled with [1-^14C]acetate for 3 hr. Rates of fatty acid and sterol synthesis were estimated from incorporation into saponifiable (upper graphs) and nonsaponifiable (lower graphs) lipids. Results are expressed as percentage WT vehicle and represent the mean ± SD for three independent experiments. (B) Mouse hepatocytes were incubated with the indicated concentrations of C13 for 3 hr, and lysates were analyzed using western blotting with the indicated antibodies.
Lipid synthesis was determined by labeling adherent cultures of primary hepatocytes with [1-^14C]acetate. After overnight culture, hepatocytes (5 × 10^5) were washed with warm PBS and allowed to rest for 3 hr in fresh M199. Cells were treated with vehicle (0.1% DMSO) or the indicated compounds and labeled with 1 mCi⋅mmol^−1 [1-^14C]acetate for 3 hr. […] Lipogenesis in hepatocytes from AMPKβ1/β2-KO mice was determined in media containing [^3H]acetate (0.2 mCi⋅mmol^−1). After 4 hr labeling, total lipids were extracted using the method of [Bligh and Dyer (1959)], and incorporated [^3H] was determined by scintillation counting. The results are expressed as micromoles acetate incorporated per gram-hour.

T2 sequence (Q8BRK8 whole entry): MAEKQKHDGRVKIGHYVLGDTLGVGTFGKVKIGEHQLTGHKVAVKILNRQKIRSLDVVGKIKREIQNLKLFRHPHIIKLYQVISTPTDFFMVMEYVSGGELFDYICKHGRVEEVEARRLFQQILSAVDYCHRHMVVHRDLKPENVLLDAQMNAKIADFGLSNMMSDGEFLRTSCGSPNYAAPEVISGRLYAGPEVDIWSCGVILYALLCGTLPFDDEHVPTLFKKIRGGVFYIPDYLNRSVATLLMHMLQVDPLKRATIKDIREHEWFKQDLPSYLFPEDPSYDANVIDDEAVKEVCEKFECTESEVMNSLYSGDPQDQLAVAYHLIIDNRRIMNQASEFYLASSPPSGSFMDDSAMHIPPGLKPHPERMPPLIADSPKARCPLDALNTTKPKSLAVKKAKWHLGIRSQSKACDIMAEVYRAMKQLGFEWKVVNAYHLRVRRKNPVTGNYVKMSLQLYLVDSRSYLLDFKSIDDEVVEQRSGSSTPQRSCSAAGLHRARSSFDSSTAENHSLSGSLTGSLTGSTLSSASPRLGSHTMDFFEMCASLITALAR
T2 sequence (Q9R078 2-270 partner limits assumed): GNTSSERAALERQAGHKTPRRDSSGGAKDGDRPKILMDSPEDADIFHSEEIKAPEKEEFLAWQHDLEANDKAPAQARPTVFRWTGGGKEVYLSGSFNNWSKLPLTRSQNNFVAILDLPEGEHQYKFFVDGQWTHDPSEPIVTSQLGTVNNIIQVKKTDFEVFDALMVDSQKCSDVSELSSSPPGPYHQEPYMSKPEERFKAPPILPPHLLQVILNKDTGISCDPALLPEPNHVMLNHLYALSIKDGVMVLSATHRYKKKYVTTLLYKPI
T2 sequence (O54950 whole entry): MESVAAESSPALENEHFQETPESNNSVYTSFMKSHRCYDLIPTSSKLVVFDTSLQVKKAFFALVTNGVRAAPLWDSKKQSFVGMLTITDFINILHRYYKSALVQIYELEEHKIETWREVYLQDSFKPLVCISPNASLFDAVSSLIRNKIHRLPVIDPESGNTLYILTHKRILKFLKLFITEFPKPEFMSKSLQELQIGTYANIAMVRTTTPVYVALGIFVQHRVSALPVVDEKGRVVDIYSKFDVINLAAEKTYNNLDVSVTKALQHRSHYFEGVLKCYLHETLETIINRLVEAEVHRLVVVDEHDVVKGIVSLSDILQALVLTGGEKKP
T1 sequence (Q5EG47 whole entry, canonical isoform): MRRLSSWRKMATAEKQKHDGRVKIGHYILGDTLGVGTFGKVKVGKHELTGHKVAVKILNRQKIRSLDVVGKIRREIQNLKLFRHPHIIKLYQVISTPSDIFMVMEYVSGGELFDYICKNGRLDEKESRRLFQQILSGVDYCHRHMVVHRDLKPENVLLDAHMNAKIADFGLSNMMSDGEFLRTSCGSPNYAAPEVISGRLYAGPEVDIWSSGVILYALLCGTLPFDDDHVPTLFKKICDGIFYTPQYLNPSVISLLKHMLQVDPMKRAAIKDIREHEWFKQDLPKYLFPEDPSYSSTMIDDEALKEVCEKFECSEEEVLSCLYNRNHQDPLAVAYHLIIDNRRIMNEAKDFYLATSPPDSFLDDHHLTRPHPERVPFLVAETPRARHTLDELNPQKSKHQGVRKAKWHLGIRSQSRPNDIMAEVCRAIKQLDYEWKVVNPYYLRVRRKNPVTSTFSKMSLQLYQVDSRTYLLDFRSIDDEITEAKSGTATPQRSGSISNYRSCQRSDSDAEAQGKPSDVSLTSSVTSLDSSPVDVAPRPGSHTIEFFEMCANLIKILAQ
T1 sequence (Q9R078 2-270 partner limits assumed): as the sequence (Q9R078 2-270 partner limits assumed) above
T1 sequence (O54950 whole entry, canonical isoform): as the sequence (O54950 whole entry) above

Structure (SMILES): CC(C)C(=O)OCOP(=O)(OCOC(=O)C(C)C)c1ccc(C2=NOC(=O)C2)o1 [Compound C13]
- compound-induced phosphorylation of AMPK and ACC [1]: abolished
- concentration at which complexes were stimulated [2]: 3 µM
- concentration above which activation was evident [3]: above 30 μM
- effect on synthesis of saponifiable and nonsaponifiable lipids (α1-KO hepatocytes): no effect
